Data reported in PMC12715756 (ACS Chemical Neuroscience, 2025).
Read-outs that look alike come from different tables or passages of the source.

Legend:
5-HT2A = molecular target: T1, 5-HT2A (Homo sapiens, UniProt P28223); test: Gq dissociation BRET assay in HEK293T cells; assay type: cell-based; conditions: for Emax ± SEM, %5-HT response 5-HT2A / EC50: Gq dissociation BRET; for Emax ± SEM, %5-HT response 5-HT2A: relative to 5-HT
T1 construct: expressed in transfected cells; host or cells: HEK293T (ATCC; RRID:CVCL_0063), transient transfection

5-HT2B = molecular target: T2, 5-HT2B (Homo sapiens, UniProt P41595); test: Gq dissociation BRET assay in HEK293T cells; assay type: cell-based; conditions: for EC50: Gq dissociation BRET, read-out: EC50 5-HT2B; for Emax: HEK-293T, read-out: Emax ± SEM, %5-HT response 5-HT2B
T2 construct: expressed in transfected cells; host or cells: HEK293T (ATCC; RRID:CVCL_0063), transient transfection

male Swiss CD-1 mice [1] = test: Open field test (thigmotaxis); assay type: in vivo; conditions: 10 mg/kg i.p., vs saline
Protocol: Male Swiss CD-1 mice (Janvier, Le Genest, France), weighing 30–35 g and aged 6–8 weeks, were used for HLA, thigmotaxis, CPP, and core body temperature experiments. Animals were housed under temperature-controlled conditions (22 ± 1 °C) with a 12 h light/dark cycle and had free access to food and water (standard laboratory diet, Panlab SL, Barcelona, Spain). Doses for HLA, thigmotaxis, CPP, and core body temperature experiments were calculated based on the free base form of each compound. […] Doses for HTR experiments were calculated based on the respective salt forms of the compounds.
A habituation phase was performed to reduce the stress and novelty associated with handling and injection. […] On the test day, their horizontal locomotor activity (HLA) was measured. […] HLA was video monitored for 2 h, and a specific tracking software (Smart 3.0 Panlab, Barcelona, Spain) was used to measure their total traveled distance (in cm). Center Versus Periphery: The thigmotactic effects of the test compounds, widely considered as anxiety-like effects, were assessed through an OF test. […] The time spent, in seconds, in the center (8 × 8 cm) or the periphery of the arena was monitored for 2 h (Smart 3.0 Panlab, Barcelona, Spain).

male Swiss CD-1 mice [2] = test: Core body temperature; assay type: in vivo; conditions: 10 mg/kg i.p., 22 ± 1 °C and 28 ± 1 °C, compared with MDMA and SDMA
Protocol: (§1) Male Swiss CD-1 mice (Janvier, Le Genest, France), weighing 30–35 g and aged 6–8 weeks, were used for HLA, thigmotaxis, CPP, and core body temperature experiments. Animals were housed under temperature-controlled conditions (22 ± 1 °C) with a 12 h light/dark cycle and had free access to food and water (standard laboratory diet, Panlab SL, Barcelona, Spain). Doses for HLA, thigmotaxis, CPP, and core body temperature experiments were calculated based on the free base form of each compound. For HTR experiments, male C57BL/6J mice (6–8 weeks old) were obtained from Jackson Laboratories (Bar Harbor, ME, USA) and housed up to four per cage with a reversed light-cycle (lights on at 1900 h, off at 0700 h). Food and water were provided ad libitum, except during behavioral testing. Testing was conducted between 1000 and 1830 h. Doses for HTR experiments were calculated based on the respective salt forms of the compounds.
Changes in body temperature were measured by means of subcutaneously implanted temperature transponders (IPTT-300; Bio Medic Data Systems, Inc., DE, USA). Seven mice were used per group. […] Subsequently, core body temperature measures were taken for 1 h, every 10 min before administration, using a DAS-8007 Wireless Reader System (Bio Medic Data Systems, Inc.), to establish a baseline. […]

male C57BL/6J mice = test: Head-twitch response (HTR); assay type: in vivo; conditions: IP, 30 min, doses based on the salt form
Protocol: as §1
The HTR was assessed using a head-mounted magnet and a magnetometer detection coil. Mice were anesthetized, a small incision was made in the scalp, and a small neodymium magnet was attached to the dorsal surface of the cranium by using dental cement. Following a two week recovery period, HTR experiments were carried out in a well-lit room with at least 7 days between sessions to avoid carryover effects. Mice (N = 4–7/group) received intraperitoneal (IP) injections of vehicle (saline) or test drug (5 mL/kg injection volume), and then activity was recorded in a glass cylinder surrounded by a magnetometer coil for 30 min. Doses for HTR experiments were calculated based on the respective salt forms of the compounds. Coil voltage was low-pass filtered (1 kHz cutoff frequency), amplified, digitized (20 kHz sampling rate, 16-bit ADC resolution), and saved to disk using a Powerlab 8/35 data acquisition system with LabChart software (ver. 8.1 ADInstruments, Colorado Springs, CO, USA). To detect head twitches, events in the recordings were transformed to scalograms, deep features were extracted using the deep convolutional neural network ResNet-50, and then the images were classified using a support vector machine (SVM). Head twitch counts were analyzed using one-way ANOVA. Posthoc comparisons were made using Dunnett’s test.

SERT = SERT (Homo sapiens, UniProt P31645); test: Uptake inhibition assay, [3H]5-HT uptake in HEK293 cells; assay type: cell-based; design: expressed in transfected cells
[3] = molecular target: T3, human organic cation transporter 1 (OCT1) (Homo sapiens, UniProt O15245); test: Uptake inhibition assay, [3H]MPP+ uptake in HEK293 cells
T3 sequence (O15245 1-554): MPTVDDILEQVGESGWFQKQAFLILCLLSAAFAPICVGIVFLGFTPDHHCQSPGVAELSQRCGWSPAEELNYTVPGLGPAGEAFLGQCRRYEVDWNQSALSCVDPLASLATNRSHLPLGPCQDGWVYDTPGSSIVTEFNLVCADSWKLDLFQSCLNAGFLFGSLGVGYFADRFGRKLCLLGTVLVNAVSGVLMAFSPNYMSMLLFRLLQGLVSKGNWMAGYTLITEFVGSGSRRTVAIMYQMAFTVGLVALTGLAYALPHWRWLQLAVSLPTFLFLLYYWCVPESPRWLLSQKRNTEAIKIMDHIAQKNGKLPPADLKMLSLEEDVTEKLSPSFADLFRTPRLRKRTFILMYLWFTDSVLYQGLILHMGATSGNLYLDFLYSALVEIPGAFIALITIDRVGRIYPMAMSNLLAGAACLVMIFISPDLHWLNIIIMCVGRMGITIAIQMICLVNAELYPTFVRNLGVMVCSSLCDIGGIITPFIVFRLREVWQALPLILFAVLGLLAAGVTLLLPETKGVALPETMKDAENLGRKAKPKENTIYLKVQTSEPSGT

[4] = Metabolic stability, substrate depletion in pooled human liver microsomes; conditions: for CLint scaled at 0.5 μM / half-life at 0.5 μM / microsomal CLint at 0.5 μM: human, pooled human liver microsomes; for clearance classification: pHLM

T2 sequence (P41595 whole entry): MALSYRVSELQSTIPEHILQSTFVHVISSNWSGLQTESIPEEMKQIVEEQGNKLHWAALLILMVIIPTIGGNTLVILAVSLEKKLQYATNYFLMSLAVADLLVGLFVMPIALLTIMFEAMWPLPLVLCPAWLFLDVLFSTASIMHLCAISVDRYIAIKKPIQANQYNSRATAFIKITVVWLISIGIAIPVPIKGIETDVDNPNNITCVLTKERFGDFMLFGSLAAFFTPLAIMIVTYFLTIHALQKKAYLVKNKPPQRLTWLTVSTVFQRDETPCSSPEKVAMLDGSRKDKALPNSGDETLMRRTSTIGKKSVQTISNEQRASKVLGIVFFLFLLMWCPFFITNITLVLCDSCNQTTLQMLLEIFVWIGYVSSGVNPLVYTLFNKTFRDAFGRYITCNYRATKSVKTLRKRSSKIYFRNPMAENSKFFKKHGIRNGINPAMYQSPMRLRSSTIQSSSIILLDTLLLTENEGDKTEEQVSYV
T1 sequence (P28223 whole entry): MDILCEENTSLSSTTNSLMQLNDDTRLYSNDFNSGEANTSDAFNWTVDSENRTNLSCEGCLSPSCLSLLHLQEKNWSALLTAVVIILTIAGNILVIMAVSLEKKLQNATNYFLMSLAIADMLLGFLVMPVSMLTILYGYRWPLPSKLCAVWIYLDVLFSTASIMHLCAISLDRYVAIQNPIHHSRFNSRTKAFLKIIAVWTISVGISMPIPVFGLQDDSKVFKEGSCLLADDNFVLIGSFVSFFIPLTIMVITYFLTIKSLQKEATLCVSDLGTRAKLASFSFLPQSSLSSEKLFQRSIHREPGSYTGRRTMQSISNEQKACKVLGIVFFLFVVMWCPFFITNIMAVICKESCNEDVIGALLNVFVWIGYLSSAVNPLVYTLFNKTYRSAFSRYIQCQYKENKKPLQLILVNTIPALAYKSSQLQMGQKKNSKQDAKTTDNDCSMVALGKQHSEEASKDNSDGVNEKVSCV
SERT, sequence (P31645 whole entry): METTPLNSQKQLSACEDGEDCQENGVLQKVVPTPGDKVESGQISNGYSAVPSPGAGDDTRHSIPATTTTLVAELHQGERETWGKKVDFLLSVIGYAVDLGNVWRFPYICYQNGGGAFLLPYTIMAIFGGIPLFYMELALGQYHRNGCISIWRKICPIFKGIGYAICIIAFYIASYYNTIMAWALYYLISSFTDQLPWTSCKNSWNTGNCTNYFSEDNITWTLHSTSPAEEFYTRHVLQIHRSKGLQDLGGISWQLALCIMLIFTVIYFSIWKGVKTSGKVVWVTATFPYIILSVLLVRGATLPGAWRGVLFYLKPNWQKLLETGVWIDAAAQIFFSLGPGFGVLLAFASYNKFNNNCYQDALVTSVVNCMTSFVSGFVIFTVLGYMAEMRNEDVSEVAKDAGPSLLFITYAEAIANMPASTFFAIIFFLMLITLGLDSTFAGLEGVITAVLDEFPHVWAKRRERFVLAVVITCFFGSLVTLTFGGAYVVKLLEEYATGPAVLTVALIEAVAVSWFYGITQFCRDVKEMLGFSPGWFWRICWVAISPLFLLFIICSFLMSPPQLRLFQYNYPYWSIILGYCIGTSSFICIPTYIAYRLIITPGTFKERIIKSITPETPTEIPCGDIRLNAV

Compound | Emax ± SEM, %5-HT response 5-HT2A (5-HT2A) | EC50 (5-HT2A; read-out: EC50 5-HT2A) | EC50 (5-HT2A; read-out: pEC50 ± SEM 5-HT2A (converted)) | EC50 (5-HT2B) | Emax (5-HT2B) | time spent in the center of the arena (thigmotaxis) (male Swiss CD-1 mice [1]) | core body temperature changes (male Swiss CD-1 mice [2]) | HTR counts (male C57BL/6J mice) | IC50 (SERT) | IC50 [3] | CLint scaled at 0.5 μM [4] | half-life at 0.5 μM [4] | microsomal CLint at 0.5 μM [4] | clearance classification [4] | Emax (5-HT2A; HEK-293T, read-out: Emax ± SEM, %5-HT response 5-HT2A, Gq dissociation BRET, relative to 5-HT)
CC(N)Cc1ccc2c(c1)SCO2 (centres unmarked) [SDA, 1-(1,3-benzoxathiol-5-yl)propan-2-amine] | 92.4 ± 2.0% | 340 nM | 302 nM | 41.5 nM | 88.2 ± 3.7% | significantly decreased the time spent in the center of the arena | significantly increased and prolonged core temperature changes | dose-related increase in HTR counts peaking at 3 mg/kg | 3090 ± 680 nM | 3650 ± 270 nM | 9.7 mL/min/kg | 1.02 h | 11.4 µL/min/mg | low clearance compounds | 
CNC(C)Cc1ccc2c(c1)SCO2 (centres unmarked) [SDMA, 1-(1,3-benzoxathiol-5-yl)-N-methylpropan-2-amine] | 68.2 ± 1.8% | 1400 nM |  | 357 nM | 70 ± 3.4% |  |  | Neither MDMA nor SDMA induced an appreciable increase in HTR counts | 4000 ± 870 nM | 4390 ± 2840 nM | 8.4 mL/min/kg | 1.18 h | 9.8 µL/min/mg | low clearance compounds | < 70%
